According to patent US11891377B1, “Pyrrolo[3,2-c][2,7]naphthyridine-2-carboxylic acid compounds as CK2 inhibitors” (KING FAISAL UNIVERSITY, priority 2023, dated 2024):

What was measured:
[1] = system: MDA-MB-231 (breast); assay: In vitro cytotoxic activity (MTT) assay, MDA-MB-231; assay type: cell-based; details: Homo sapiens; MDA-MB-231 cells, exposed for 96 hours; read-out: IC50, 50% inhibition of cell proliferation, MDA-MB-231 (breast)
Method: (§1) Compounds 1-16 were screened for their in vitro cytotoxic activity utilizing a 3-(4,5-dimethyl-thiazol-2-yl)-2,5-diphenyltetrazolium bromide (MTT) assay against selected cancer human cell lines consisting of PC3 (prostate), HCT116 (colon), A375 (melanoma), H1299 (lung), MIAPaCa-2 (pancreas), HL60 (leukemia), MCF7 (breast), MDA-MB-231 (breast) (T. Mosmann, J. Immunol. Meth., 1983, 65, 55-63). The cells were cultured at 37° C. in RMPI1640 medium supplemented with 10% fetal bovine serum, 50 IU/mL penicillin, and 50 μg/mL streptomycin in a 5% CO2 incubator. All cells were sub-cultured 3 times/week by trypsinisation. Viable cells were seeded and allowed to adhere for 12 h before a test drug was added in 96-well plates at an initial density of 1.0×10^5 cells/mL. Tumour cell lines were separately exposed to various concentrations of the tested compounds followed by incubation at a temperature of 37° C. during 96 h inside a medium of fresh RMPI 1640. Cells were subsequently incubated at 37° C. using MTT at 0.5 mg/mL during 4 h. After removal of supernatant, formazan crystals were dissolved in isopropanol and the optical density was measured at 570 nm. CX-4945 was used as a positive control.

[2] = system: MIAPaCa-2 (pancreas); assay: In vitro cytotoxic activity (MTT) assay, MIAPaCa-2; assay type: cell-based; details: Homo sapiens, MIA PaCa-2; MIAPaCa-2 cells, exposed for 96 hours; read-out: IC50, 50% inhibition of cell proliferation, MIAPaCa-2 (pancreas)
Method: as §1

[3] = system: HCT116 (colon); assay: In vitro cytotoxic activity (MTT) assay, HCT116; assay type: cell-based; details: Homo sapiens, HCT-116; HCT116 cells, exposed for 96 hours; read-out: IC50, 50% inhibition of cell proliferation, HCT116 (colon)
Method: as §1

[4] = system: H1299 (lung); assay: In vitro cytotoxic activity (MTT) assay, H1299; assay type: cell-based; details: Homo sapiens, NCI-H1299; H1299 cells, exposed for 96 hours; read-out: IC50, 50% inhibition of cell proliferation, H1299 (lung)
Method: as §1

[5] = system: PC3 (prostate); assay: In vitro cytotoxic activity (MTT) assay, PC3; assay type: cell-based; details: Homo sapiens, PC-3; PC3 cells, exposed for 96 hours; read-out: IC50, 50% inhibition of cell proliferation, PC3 (prostate)
Method: as §1

[6] = system: MCF7 (breast); assay: In vitro cytotoxic activity (MTT) assay, MCF7; assay type: cell-based; details: Homo sapiens; MCF7 cells, exposed for 96 hours; read-out: IC50, 50% inhibition of cell proliferation, MCF7 (breast)
Method: as §1

[7] = target: T1, recombinant human CK2 (RRββ-holoenzyme) (Homo sapiens, UniProt P68400); assay: CK2 Kinase Assay (radiometric, [γ-33P]ATP); assay type: biochemical; details: final ATP concentration 15 μM, 10 min at 30° C.; read-out: protein kinase CK2 IC50
T1 construct: purchased Millipore
Method: CK2 Kinase Assay was conducted using the protocol as described in Pierre F. et al; J. Med. Chem. 2011, 54, 635-654. The tested compounds in aqueous solution were added at a volume of 10 μL to a reaction mixture comprising 10 μL of assay dilution buffer (ADB; 20 mM MOPS, pH 7.2, 25 mM β-glycerol phosphate, 5 mM EGTA, 1 mM sodium orthovanadate, and 1 mM dithiothreitol), 10 μL of substrate peptide (RRRDDDSDDD, dissolved in ADB at a concentration of 1 mM), 10 μL of recombinant human CK2 (RRββ-holoenzyme, 25 ng dissolved in ADB; Millipore). Reactions were initiated by the addition of 10 μL of ATP solution (90% 75 mMMgCl2, 75 μM ATP (final ATP concentration: 15 μM) dissolved in ADB; 10% [γ-33P] ATP (stock 1 mCi/100 μL; 3000 Ci/mmol (Perkin-Elmer) and maintained for 10 min at 30° C. The reactions were quenched with 100 μL of 0.75% phosphoric acid and then transferred to and filtered through a phosphor cellulose filter plate (Millipore). After washing each well five times with 0.75% phosphoric acid, the plate was dried under vacuum for 5 min and, following the addition of 15 μL of scintillation fluid to each well, the residual radioactivity was measured using a Wallac luminescence counter. The ICso values were derived from eight concentrations of test inhibitors.

[8] = system: HL60 (leukemia); assay: In vitro cytotoxic activity (MTT) assay, HL60; assay type: cell-based; details: Homo sapiens, HL-60; HL60 cells, exposed for 96 hours; read-out: IC50, 50% inhibition of cell proliferation, HL60 (leukemia)
Method: as §1

[9] = system: A375 (melanoma); assay: In vitro cytotoxic activity (MTT) assay, A375; assay type: cell-based; details: Homo sapiens, A-375; A375 cells, exposed for 96 hours; read-out: IC50, 50% inhibition of cell proliferation, A375 (melanoma)
Method: as §1

T1 sequence (P68400 whole entry): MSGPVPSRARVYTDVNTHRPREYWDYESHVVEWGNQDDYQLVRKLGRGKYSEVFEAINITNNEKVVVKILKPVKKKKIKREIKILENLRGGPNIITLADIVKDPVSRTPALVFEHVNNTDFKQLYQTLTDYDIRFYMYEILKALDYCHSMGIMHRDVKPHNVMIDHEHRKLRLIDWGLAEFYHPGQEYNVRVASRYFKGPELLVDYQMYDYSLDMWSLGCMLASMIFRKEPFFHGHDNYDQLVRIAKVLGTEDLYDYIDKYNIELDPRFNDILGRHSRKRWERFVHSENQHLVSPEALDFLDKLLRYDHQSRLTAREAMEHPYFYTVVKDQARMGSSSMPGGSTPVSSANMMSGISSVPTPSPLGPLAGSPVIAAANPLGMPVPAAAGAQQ
T1 sequence (P67870 whole entry partner): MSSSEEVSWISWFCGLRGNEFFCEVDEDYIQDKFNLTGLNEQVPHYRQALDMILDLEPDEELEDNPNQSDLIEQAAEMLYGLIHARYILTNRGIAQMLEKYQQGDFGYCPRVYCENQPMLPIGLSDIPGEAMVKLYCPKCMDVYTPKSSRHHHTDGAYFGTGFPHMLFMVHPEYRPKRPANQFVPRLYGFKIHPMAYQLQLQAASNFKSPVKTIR

IC50 [7]: 35 nM
Compound: O=C(O)c1cc2nc(Nc3cccc(Cl)c3)c3cnccc3c2[nH]1 [Compound 1, 5-((3-chlorophenyl)amino)-1H-pyrrolo[3,2-c][2,7]naphthyridine-2-carboxylic Acid]
IC50 [1]: 3300 nM | IC50 [2]: 1100 nM | IC50 [3]: 1300 nM | IC50 [4]: 1200 nM | IC50 [5]: 2100 nM | IC50 [6]: 3900 nM | IC50 [8]: 2600 nM | IC50 [9]: 2500 nM
